According to patent publication US9796741B2 (Achillion Pharmaceuticals, Inc., priority 2014, dated 2017):
Like-named read-outs stand apart in the source and are kept apart here.

Target: Human factor D (Homo sapiens (Human), UniProt P00746)
Test: Human Factor D Assay
Format: biochemical
Procedure, shortened: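 Serum-purified factor D (80 nM final) preincubated 5 min at room temperature with compound in 50 mM Tris, 1M NaCl, pH 7.5. Z-L-Lys-SBzl and DTNB added at 100 μM each; OD405 followed kinetically over 30 min. IC50 by non-linear regression of % inhibition.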

[1] = human factor D 80 nM, substrate Z-L-Lys-SBzl, DTNB

Human factor D, sequence (P00746 26-253): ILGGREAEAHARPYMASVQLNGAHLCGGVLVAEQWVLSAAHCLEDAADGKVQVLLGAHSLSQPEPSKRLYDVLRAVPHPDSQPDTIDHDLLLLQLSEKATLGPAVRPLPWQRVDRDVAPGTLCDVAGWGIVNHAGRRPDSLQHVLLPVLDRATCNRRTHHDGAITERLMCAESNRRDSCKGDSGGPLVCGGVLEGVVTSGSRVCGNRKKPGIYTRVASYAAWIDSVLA

SMILES | IC50 [1] | IC50
NC(=O)c1nn(CC(=O)N2C[C@H](F)C[C@H]2C(=O)Nc2nnc(-c3ccccc3Cl)s2)c2ccc(-c3ccnnc3)cc12 [Compound 115, 1-(2-((2S,4R)-2-(5-(2-chlorophenyl)-1,3,4-thiadiazol-2-ylcarbamoyl)-4-fluoropyrrolidin-1-yl)-2-oxoethyl)-5-(pyridazin-4-yl)-1H-indazole-3-carboxamide] | > 10 µM | –
CC(=O)c1cn(CC(=O)N2C[C@H](F)C[C@H]2C(=O)Nc2nnc(-c3ccc(Cl)c(Cl)c3)s2)c2ccc(-c3ccnnc3)cc12 [Compound 117, (2S,4R)-1-(2-(3-acetyl-5-(pyridazin-4-yl)-1H-indol-1-yl)acetyl)-N-(5-(3,4-dichlorophenyl)-1,3,4-thiadiazol-2-yl)-4-fluoropyrrolidine-2-carboxamide] | > 10 µM | –
CC(=O)Nc1ncc(-c2ccc3c(c2)c(C(C)=O)cn3CC(=O)N2C[C@H](F)C[C@H]2C(=O)Nc2cccc(Br)n2)cn1 [Compound 118, (2S,4R)-1-(2-(5-(2-acetamidopyrimidin-5-yl)-3-acetyl-1H-indol-1-yl)acetyl)-N-(6-bromopyridin-2-yl)-4-fluoropyrrolidine-2-carboxamide] | < 1 µM | –
CC(=O)c1cn(CC(=O)N2C[C@H](F)C[C@H]2C(=O)Nc2cccc(Br)n2)c2ccc(-c3cccc(Cl)c3)cc12 [Compound 119, (2S,4R)-1-(2-(3-acetyl-5-(3-chlorophenyl)-1H-indol-1-yl)acetyl)-N-(6-bromopyridin-2-yl)-4-fluoropyrrolidine-2-carboxamide] | < 1 µM | –
CC(=O)c1cn(CC(=O)N2C[C@H](F)C[C@H]2C(=O)Nc2cccc(Br)n2)c2ccc(-c3ccc(C)nc3)cc12 [Compound 120, (2S,4R)-1-(2-(3-acetyl-5-(6-methylpyridin-3-yl)-1H-indol-1-yl)acetyl)-N-(6-bromopyridin-2-yl)-4-fluoropyrrolidine-2-carboxamide] | < 1 µM | –
CC(=O)c1cn(CC(=O)N2C[C@H](F)C[C@H]2C(=O)Nc2cccc(-c3ccccc3Cl)c2F)c2ccc(-c3cnnc(C)c3)cc12 [Compound 121, (2S,4R)-1-(2-(3-acetyl-5-(6-methylpyridazin-4-yl)-1H-indol-1-yl)acetyl)-N-(2′-chloro-2-fluorobiphenyl-3-yl)-4-fluoropyrrolidine-2-carboxamide] | < 1 µM | –
COc1cc(C)cc2c1OCCC2NC(=O)[C@@H]1C[C@@H](F)CN1C(=O)Cn1nc(C(N)=O)c2cc(-c3ccnnc3)ccc21 (stereo partly drawn) [Compound 122, 1-(2-((2S,4R)-4-fluoro-2-(8-methoxy-6-methylchroman-4-ylcarbamoyl)pyrrolidin-1-yl)-2-oxoethyl)-5-(pyridazin-4-yl)-1H-indazole-3-carboxamide] | > 10 µM | –
COc1cc(C)cc2c1OCCC2NC(=O)[C@@H]1C[C@@H](F)CN1C(=O)Cn1cc(C(C)=O)c2cc(-c3ccnnc3)ccc21 (stereo partly drawn) [Compound 123, (2S,4R)-1-(2-(3-acetyl-5-(pyridazin-4-yl)-1H-indol-1-yl)acetyl)-4-fluoro-N-(8-methoxy-6-methylchroman-4-yl)pyrrolidine-2-carboxamide] | > 10 µM | –
CC(=O)c1cn(CC(=O)N2C[C@H](F)C[C@H]2C(=O)NC2CCCN(c3cc(C)ccc3F)C2=O)c2ccc(-c3ccnnc3)cc12 (stereo partly drawn) [Compound 125, (2S,4R)-1-(2-(3-acetyl-5-(pyridazin-4-yl)-1H-indol-1-yl)acetyl)-4-fluoro-N-(1-(2-fluoro-5-methylphenyl)-2-oxopiperidin-3-yl)pyrrolidine-2-carboxamide] | – | 1 to 10 µM
CC(=O)c1cn(CC(=O)N2C[C@H](F)C[C@H]2C(=O)Nc2cccc(Cl)c2C(F)(F)F)c2ccc(-c3ccnnc3)cc12 [Compound 126, (2S,4R)-1-(2-(3-acetyl-5-(pyridazin-4-yl)-1H-indol-1-yl)acetyl)-N-(3-chloro-2-(trifluoromethyl)phenyl)-4-fluoropyrrolidine-2-carboxamide] | > 10 µM | –
